Experimental data taken from ChEMBL document CHEMBL5126638, “Resin Glycosides from Operculina hamiltonii and Their Synergism with Vinblastine in Cancer Cells” (J Nat Prod, 2022).
Activity calls are given as the source filed them. The calls are words filed in the database; no cut-off is given here.

Key:
Type in all cases: functional, cell-based
MCF7 [1] = test: Enhancement of 0.003 uM vinblastine-induced cytotoxicity in human MCF7 cells assessed as growth inhibition level after 48 hrs by SRB assay; conditions: MCF7, 48 h
MCF7-VP [2] = test: Enhancement of 0.003 uM vinblastine-induced cytotoxicity in human MCF7/Vin cells assessed as growth inhibition level after 48 hrs by SRB assay
HeLa [3] = test: Enhancement of 0.003 uM vinblastine-induced cytotoxicity in human HeLa cells assessed as growth inhibition level after 48 hrs by SRB assay
HCT-116 [4] = test: Enhancement of 0.003 uM vinblastine-induced cytotoxicity in human HCT-116 cells assessed as growth inhibition level after 48 hrs by SRB assay; conditions: HCT-116, 48 h
MCF7 [5] = test: Cytotoxicity in human MCF7 cells assessed as growth inhibition level after 48 hrs by SRB assay; conditions: MCF7, 48 h
MCF7-VP [6] = test: Cytotoxicity in human MCF7/Vin cells assessed as growth inhibition level after 48 hrs by SRB assay
HeLa [7] = test: Cytotoxicity in human HeLa cells assessed as growth inhibition level after 48 hrs by SRB assay
HCT-116 [8] = test: Cytotoxicity in human HCT-116 cells assessed as growth inhibition level after 48 hrs by SRB assay; conditions: HCT-116, 48 h
MCF7 [9] = test: Enhancement of 0.4 uM vinblastine-induced cytotoxicity in human MCF7 cells assessed as growth inhibition level at 25 uM after 48 hrs by Microscopic visualization based assay

Row | Structure (SMILES) | IC50 (MCF7 [1]) [µM] | IC50 (MCF7-VP [2]) [µM] | IC50 (HeLa [3]) [µM] | IC50 (HCT-116 [4]) [µM] | IC50 (MCF7 [5]) [µM] | IC50 (MCF7-VP [6]) [µM] | IC50 (HeLa [7]) [µM] | IC50 (HCT-116 [8]) [µM] | Activity (MCF7 [9])
1 | CCCCCCCCCCCC(=O)O[C@H]1[C@H](O[C@@H]2[C@H]3OC(=O)CCCCCCCCC[C@H](CCCCC)O[C@@H]4O[C@H](C)[C@H](O)[C@H](O)[C@H]4O[C@H](O[C@H]2C)[C@@H]3O)O[C@@H](C)[C@H](O[C@@H]2O[C@@H](C)[C@H](O)[C@@H](O)[C@H]2O)[C@H]1O[C@@H]1O[C@H](CO)[C@@H](O)[C@H](O)[C@H]1O | 15.2 | 18.4 | 26.6 | 17.7 | > 25 | > 25 | > 25 | > 25 | Active
2 | CCCCCCCCCC(=O)O[C@H]1[C@H](O[C@@H]2[C@@H](O)[C@@H](O)[C@H](O[C@H]3[C@H](O[C@@H](CCCCC)CCCCCCCCCC(=O)OC)O[C@H](C)[C@H](O)[C@@H]3O)O[C@H]2C)O[C@@H](C)[C@H](O[C@@H]2O[C@@H](C)[C@H](O)[C@@H](O)[C@H]2O)[C@H]1O[C@@H]1O[C@H](CO)[C@@H](O)[C@H](O)[C@H]1O | 4.7 | 10 | 26.1 | 8.6 | > 25 | > 25 | > 25 | > 25 | Active
3 | COc1cc2c(c(OC)c1OC)-c1ccc(OC)c(=O)cc1[C@@H](NC(C)=O)CC2 [COLCHICINE] | – | – | – | – | – | 1.57 | 0.006 | 0.08 | –
4 | CCCCCCCCCC(=O)O[C@H]1[C@H](O[C@@H]2[C@H]3OC(=O)CCCCCCCCC[C@H](CCCCC)O[C@@H]4O[C@H](C)[C@H](O)[C@H](O)[C@H]4O[C@H](O[C@H]2C)[C@@H]3O)O[C@@H](C)[C@H](O[C@@H]2O[C@@H](C)[C@H](O)[C@@H](O)[C@H]2O)[C@H]1O[C@@H]1O[C@H](CO)[C@@H](O)[C@H](O)[C@H]1O | 12.3 | 19.4 | 23.8 | 12.8 | > 25 | > 25 | > 25 | > 25 | Active
5 | CC[C@]1(O)C[C@@H]2CN(CCc3c([nH]c4ccccc34)[C@@](C(=O)OC)(c3cc4c(cc3OC)N(C)[C@H]3[C@@](O)(C(=O)OC)[C@H](OC(C)=O)[C@]5(CC)C=CCN6CC[C@]43[C@@H]65)C2)C1 [VINBLASTINE] | – | – | – | – | 0.035 | 1.63 | 0.004 | 0.3 | –
6 | CCCCCCCCCCCC(=O)O[C@H]1[C@H](O[C@@H]2[C@@H](O)[C@@H](O)[C@H](O[C@H]3[C@H](O[C@@H](CCCCC)CCCCCCCCCC(=O)OC)O[C@H](C)[C@H](O)[C@@H]3O)O[C@H]2C)O[C@@H](C)[C@H](O[C@@H]2O[C@@H](C)[C@H](O)[C@@H](O)[C@H]2O)[C@H]1O[C@@H]1O[C@H](CO)[C@@H](O)[C@H](O)[C@H]1O | 4.4 | 3.1 | 14.6 | 6.8 | > 25 | > 25 | > 25 | > 25 | Active
